Target: T1, Menin (Homo sapiens, UniProt O00255)
T1 sequence (O00255 whole entry): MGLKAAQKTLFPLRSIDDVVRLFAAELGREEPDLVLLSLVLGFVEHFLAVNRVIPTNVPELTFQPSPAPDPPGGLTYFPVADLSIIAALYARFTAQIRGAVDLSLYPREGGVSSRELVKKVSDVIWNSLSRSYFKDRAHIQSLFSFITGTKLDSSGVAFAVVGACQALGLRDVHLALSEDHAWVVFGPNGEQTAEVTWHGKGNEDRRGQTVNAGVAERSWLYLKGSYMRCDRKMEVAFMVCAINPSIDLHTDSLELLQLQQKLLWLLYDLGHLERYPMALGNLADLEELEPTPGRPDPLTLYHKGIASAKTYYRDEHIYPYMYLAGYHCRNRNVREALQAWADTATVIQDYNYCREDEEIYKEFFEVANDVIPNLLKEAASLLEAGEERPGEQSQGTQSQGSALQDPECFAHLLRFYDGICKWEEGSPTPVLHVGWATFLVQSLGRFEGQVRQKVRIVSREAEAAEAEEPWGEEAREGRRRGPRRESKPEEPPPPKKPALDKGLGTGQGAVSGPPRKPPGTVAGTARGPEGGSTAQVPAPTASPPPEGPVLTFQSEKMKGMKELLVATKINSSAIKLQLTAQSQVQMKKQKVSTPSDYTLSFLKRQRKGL
Assay: Inhibition of biotinylated MLL-1 derived biotinylated Btn-PEG2- PEG2-S-Nva-RWRFPARPGTT-Amide binding to recombinant full length N-terminal His-tagged menin (unknown origin) expressed in Escherichia coli incubated for 10 mins by TR-FRET assay

Compound | IC50 [nM]
O=S(=O)(Cc1ccc(CN2CCC3(CCN(c4ncnc5sc(CC(F)(F)F)cc45)C3)C2)cc1)NCCO (centres undefined) | 10
NS(=O)(=O)Cc1ccc(CN2CCC3(CCN(c4ncnc5cc(CC(F)(F)F)sc45)C3)C2)cc1 (centres undefined) | 10
CN(CCO)c1ccc(CN2CCC3(CCN(c4ncnc5sc(CC(F)(F)F)cc45)C3)C2)cc1 (centres undefined) | 10
FC(F)Cc1cc2c(N3CCC4(CCN(Cc5ccc(N6CCOCC6)cc5)C4)C3)ncnc2s1 (centres undefined) | 10
C=CC(=O)Nc1ccc(CN2CCC3(CCN(c4ncnc5sc(CC(F)(F)F)cc45)C3)C2)cc1 (centres undefined) | 10
N#CCc1ccc(CN2CCC3(CCN(c4ncnc5sc(CC(F)(F)F)cc45)C3)C2)cc1 (centres undefined) | 20
CC(c1ccc(CN2CCC3(CCN(c4ncnc5sc(CC(F)(F)F)cc45)C3)C2)cc1)S(N)(=O)=O (centres undefined) | 10
CC(C)(C#N)c1ccc(CN2CCC3(CCN(c4ncnc5sc(CC(F)(F)F)cc45)C3)C2)cc1 (centres undefined) | 20
NS(=O)(=O)Cc1ccc(CN2CCC3(CCN(c4ncnc5sc(CC(F)(F)F)cc45)C3)C2)cc1 (centres undefined) | 4
